For the assay, the system named is New Zealand rabbits with normal intraocular pressure. Description: Intraocular pressure reduction experiment in New Zealand rabbits with normal intraocular pressure. In kind it is in vivo. Particulars: for Intraocular pressure in the left eye: 20 mg/mL group, left eye (saline or solvent); for Intraocular pressure in the right eye: 20 mg/mL in right eye; for Reduction magnitude of intraocular pressure: 20 mg/mL, left minus right eye. An excerpt: Experimental Example 2. Intraocular Pressure Reduction Experiment in New Zealand Rabbits with Normal Intraocular Pressure
Rabbits with normal intraocular pressure were adopted to screen intraocular pressure reduction actions of the potential compounds by eye-drop administration.
Male New Zealand rabbits, aged 97-127 days, weighted 2.65-3.5 kg, purchased from PizhouDongfang Breeding Co. Ltd.
The male New Zealand rabbits were randomly divided into 8 rabbits/per group using a computer-generated randomization method Animals in each group were eye-dropped with different test samples in the right eye, and normal saline or solvent in the left eye, and the volume of the administration was both 50 μL/eye. The intraocular pressure of the animals was measured before administration and in 1, 2, 4, 6, 8 and 10 hours after the administration, respectively.

Consider `Cc1cn(COC(=O)c2ccccc2)c(=O)c2cccc(S(=O)(=O)N3CC[C@H](N)C3)c12` [Compound 64], for which the “Intraocular pressure in the left eye” value (1 hour after administration) was found to be 11.96 mmHg; the “Intraocular pressure in the left eye” value (2 hours after administration) is given as 9.79 mmHg; the “Intraocular pressure in the left eye” value (4 hours after administration) was 11.50 mmHg; the “Intraocular pressure in the left eye” value (6 hours after administration) came out at 11.54 mmHg; the “Intraocular pressure in the left eye” value (8 hours after administration) was 11.75 mmHg; the “Intraocular pressure in the left eye” value (10 hours after administration) is on record as 11.88 mmHg. The “Intraocular pressure in the left eye” value (before administration) turned out to be 11.29 mmHg. The “Intraocular pressure in the right eye” value by setting is: (1 hour after administration) 11.54 mmHg; (2 hours after administration) 7.42 mmHg; (4 hours after administration) 7.13 mmHg; (6 hours after administration) 7.38 mmHg; (8 hours after administration) 7.63 mmHg; (10 hours after administration) 9.71 mmHg. In addition, the “Intraocular pressure in the right eye” value (before administration) stood at 12.04 mmHg. Moreover, the “Reduction magnitude of intraocular pressure” value reads like this: (1 hour after administration) 0.42 mmHg; (2 hours after administration) 2.37 mmHg; (4 hours after administration) 4.37 mmHg; (6 hours after administration) 4.16 mmHg; (8 hours after administration) 4.12 mmHg; (10 hours after administration) 2.17 mmHg. Also, the “Reduction magnitude of intraocular pressure” value (before administration) is recorded as −0.75 mmHg.

The record behind these values is patent publication US12459918B2, “Isoquinolinone derivatives serving as rock protein kinase inhibitors and use thereof” (GUANGZHOU OCUSUN OPHTHALMIC BIOTECHNOLOGY CO., LTD., priority 2019, dated 2025).
